US20100255070A1, “COMPOSITIONS AND METHODS FOR PREVENTING, MINIMIZING AND HEALING SKIN IRRITATION AND TRAUMA” (PRELIEF INC., priority 2007, published 2010)

Assay: Water solubility of the components of the preferred aqueous composition
Format: physicochemical
Settings: component of the preferred aqueous composition
Description: The film-forming component is designed to be insoluble so that it will form a film on the skin.

Water Solubility: S
SMILES: OCC(O)CO [Glycerin]
